Measured values as given in the supplement of paper PMC9663587.

How the values were obtained:
SHP099 = compound: CC1(CCN(CC1)C2=CN=C(C(=N2)N)C3=C(C(=CC=C3)Cl)Cl)N [SHP099]
Vorinostat = compound: O=C(CCCCCCC(=O)Nc1ccccc1)NO [Vorinostat]
[1] = compound: CCN1CCN(Cc2ccc(Nc3ncc(F)c(-c4cc(F)c5nc(C)n(C(C)C)c5c4)n3)nc2)CC1
[2] = compound: CCc1cnn2c(NCc3ccc[n+]([O-])c3)cc(N3CCCC[C@H]3CCO)nc12
Paclitaxel = compound: CC(=O)O[C@H]1C(=O)[C@@]2(C)[C@H]([C@H](OC(=O)c3ccccc3)[C@]3(O)C[C@H](OC(=O)[C@H](O)[C@@H](NC(=O)c4ccccc4)c4ccccc4)C(C)=C1C3(C)C)[C@]1(OC(C)=O)CO[C@@H]1C[C@@H]2O [Paclitaxel]
BSJ-03-123 = compound: CC(=O)c1c(C)c2cnc(Nc3ccc(N4CCN(CCOCCOCCOCCNC(=O)COc5cccc6c5C(=O)N(C5CCC(=O)NC5=O)C6=O)CC4)cn3)nc2n(C2CCCC2)c1=O [BSJ-03-123]
Buparlisib/NVP-BKM120 = compound: Nc1cc(C(F)(F)F)c(-c2cc(N3CCOCC3)nc(N3CCOCC3)n2)cn1 [Buparlisib/NVP-BKM120]
AZD5363 = compound: NC1(C(=O)N[C@@H](CCO)c2ccc(Cl)cc2)CCN(c2nc[nH]c3nccc2-3)CC1 [AZD5363]
Cabozantinib = compound: COc1cc2nccc(Oc3ccc(NC(=O)C4(C(=O)Nc5ccc(F)cc5)CC4)cc3)c2cc1OC [Cabozantinib]
[3] = compound: CC(=O)c1c(C)c2cnc(Nc3ccc(N4CCNCC4)cn3)nc2n(C2CCCC2)c1=O; assay: GR value, 72 h; higher = faster growth (1 = untreated, <0 = killing);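 further: breast cancer and non-malignant breast epithelial lines, nine half-log doses, viable cells counted by Hoechst and LIVE/DEAD dye imaging versus time-zero plates and DMSO controls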
Flavopiridol = compound: CN1CC[C@H](c2c(O)cc(O)c3c(=O)cc(-c4ccccc4Cl)oc23)[C@H](O)C1 [Flavopiridol]; assay: as above
[4] = compound: CCN1CCN(Cc2ccc(Nc3ncc(F)c(-c4cc(F)c5nc(C)n(C(C)C)c5c4)n3)nc2)CC1; assay: as above
THZ531 = compound: CN(C)C/C=C/C(=O)Nc1ccc(C(=O)N2CCC[C@@H](Nc3ncc(Cl)c(-c4c[nH]c5ccccc45)n3)C2)cc1 [THZ531]; assay: as above
YKL-5-124 = compound: C=CC(=O)Nc1ccc(C(=O)Nc2[nH]nc3c2CN(C(=O)N[C@H](CN(C)C)c2ccccc2)C3(C)C)cc1 [YKL-5-124]; assay: as above
THZ1 = compound: CN(C)C/C=C/C(=O)Nc1ccc(C(=O)Nc2cccc(Nc3ncc(Cl)c(-c4c[nH]c5ccccc45)n3)c2)cc1 [THZ1]; assay: as above
[5] = compound: CCc1cnn2c(NCc3ccc[n+]([O-])c3)cc(N3CCCC[C@H]3CCO)nc12; assay: as above
LEE011/Ribociclib = compound: CN(C)C(=O)c1cc2cnc(Nc3ccc(N4CCNCC4)cn3)nc2n1C1CCCC1 [LEE011/Ribociclib]; assay: as above
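Wherever GR50, 72 h is given: breast cancer and non-malignant breast epithelial cell lines, Deep Dye Drop or Dye Drop imaging, nine half-log doses, GR normalized to time-zero plates and DMSO-only controls.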

For MDAMB453, the “GR50, 72 h” value (SHP099) was greater than 10 µM, the “GR50, 72 h” value (Vorinostat) was 0.944 µM and the “GR50, 72 h” value [1] was 0.00577 µM. For the same cell line, the “GR50, 72 h” value [2] was 0.0114 µM, the “GR50, 72 h” value (Paclitaxel) was 0.00247 µM and the “GR50, 72 h” value (BSJ-03-123) was 1.8 µM. For the same cell line, the “GR50, 72 h” value (Buparlisib/NVP-BKM120) was 0.694 µM, the “GR50, 72 h” value (AZD5363) was 1.55 µM and the “GR50, 72 h” value (Cabozantinib) was 9.71 µM. It also gave a GR value ([3]; 0.0003162 µM) of 1.08 GR, a GR value ([3]; 0.001 µM) of 1.06 GR and a GR value ([3]; 0.003162 µM) of 0.994 GR. The GR value ([3]; 0.01 µM) was 0.851 GR, the GR value ([3]; 0.03162 µM) was 0.607 GR and the GR value ([3]; 0.1 µM) was 0.278 GR. It also gave a GR value ([3]; 0.3162 µM) of 0.105 GR, a GR value ([3]; 1 µM) of 0.0968 GR and a GR value ([3]; 3.162 µM) of 0.0641 GR. The GR value (Flavopiridol; 0.0001 µM) was 1.06 GR, the GR value (Flavopiridol; 0.0003162 µM) was 1.04 GR and the GR value (Flavopiridol; 0.001 µM) was 0.944 GR. It also gave a GR value (Flavopiridol; 0.003162 µM) of 0.819 GR, a GR value (Flavopiridol; 0.01 µM) of 0.916 GR and a GR value (Flavopiridol; 0.03162 µM) of 1.05 GR. It also gave a GR value (Flavopiridol; 0.1 µM) of 0.671 GR, a GR value (Flavopiridol; 0.3162 µM) of 0.0173 GR and a GR value (Flavopiridol; 1 µM) of -0.186 GR. The GR value ([4]; 0.001 µM) was 0.908 GR, the GR value ([4]; 0.003162 µM) was 0.615 GR and the GR value ([4]; 0.01 µM) was 0.211 GR. The GR value ([4]; 0.03162 µM) was 0.0514 GR, the GR value ([4]; 0.1 µM) was 0.0343 GR and the GR value ([4]; 0.3162 µM) was 0.0775 GR. The GR value ([4]; 1 µM) was 0.0548 GR, the GR value ([4]; 3.162 µM) was 0.0127 GR and the GR value ([4]; 10 µM) was -0.787 GR. For the same cell line, the GR value (THZ531; 0.0001 µM) was 1.1 GR, the GR value (THZ531; 0.0003162 µM) was 0.965 GR and the GR value (THZ531; 0.001 µM) was 0.877 GR. For the same cell line, the GR value (THZ531; 0.003162 µM) was 0.996 GR, the GR value (THZ531; 0.01 µM) was 0.851 GR and the GR value (THZ531; 0.03162 µM) was 0.38 GR. It also gave a GR value (THZ531; 0.1 µM) of -0.333 GR, a GR value (THZ531; 0.3162 µM) of -0.27 GR and a GR value (THZ531; 1 µM) of -0.266 GR. It also gave a GR value (YKL-5-124; 0.001 µM) of 0.574 GR, a GR value (YKL-5-124; 0.003162 µM) of 0.333 GR and a GR value (YKL-5-124; 0.01 µM) of 0.209 GR. For the same cell line, the GR value (YKL-5-124; 0.03162 µM) was 0.209 GR, the GR value (YKL-5-124; 0.1 µM) was 0.143 GR and the GR value (YKL-5-124; 0.3162 µM) was 0.0956 GR. It also gave a GR value (YKL-5-124; 1 µM) of 0.128 GR, a GR value (YKL-5-124; 3.162 µM) of 0.143 GR and a GR value (YKL-5-124; 10 µM) of -0.503 GR. The GR value (THZ1; 0.0001 µM) was 1 GR, the GR value (THZ1; 0.0003162 µM) was 0.935 GR and the GR value (THZ1; 0.001 µM) was 1.04 GR. The GR value (THZ1; 0.003162 µM) was 0.716 GR, the GR value (THZ1; 0.01 µM) was 0.61 GR and the GR value (THZ1; 0.03162 µM) was 0.0146 GR. The GR value (THZ1; 0.1 µM) was -0.0991 GR, the GR value (THZ1; 0.3162 µM) was -0.106 GR and the GR value (THZ1; 1 µM) was -0.277 GR. The GR value ([5]; 0.0001 µM) was 1.05 GR, the GR value ([5]; 0.0003162 µM) was 1.06 GR and the GR value ([5]; 0.001 µM) was 1.04 GR. For the same cell line, the GR value ([5]; 0.003162 µM) was 1.03 GR, the GR value ([5]; 0.01 µM) was 0.645 GR and the GR value ([5]; 0.03162 µM) was -0.173 GR. For the same cell line, the GR value ([5]; 0.1 µM) was -0.28 GR, the GR value ([5]; 0.3162 µM) was -0.238 GR and the GR value ([5]; 1 µM) was -0.242 GR. It also gave a GR value (LEE011/Ribociclib; 0.001 µM) of 0.717 GR, a GR value (LEE011/Ribociclib; 0.003162 µM) of 0.647 GR and a GR value (LEE011/Ribociclib; 0.01 µM) of 0.562 GR. It also gave a GR value (LEE011/Ribociclib; 0.03162 µM) of 0.637 GR, a GR value (LEE011/Ribociclib; 0.1 µM) of 0.461 GR and a GR value (LEE011/Ribociclib; 0.3162 µM) of 0.365 GR. For the same cell line, the GR value (LEE011/Ribociclib; 1 µM) was 0.273 GR, the GR value (LEE011/Ribociclib; 3.162 µM) was 0.225 GR and the GR value (LEE011/Ribociclib; 10 µM) was 0.208 GR.
